Publication PMC11357446, “Searching for Novel HDAC6/Hsp90 Dual Inhibitors with Anti-Prostate Cancer Activity: In Silico Screening and In Vitro Evaluation” (Pharmaceuticals, 2024)

Assays:
[1] = system: acetylated H3 (Ac-H3) in PC-3 cells; assay: Western blot of acetylated histone H3 in PC-3 cells; assay type: cell-based, human; settings: 24 h at GI50 concentration
Protocol: (§1) To assess whether the observed antiproliferative activity of the selected compounds was a consequence of HDAC6-targeting, we examined the effect of the cell treatments on the expression levels of acetylated tubulin (Ac-Tub), a well-known HDAC6 target. LNCaP and PC-3 cells were treated with the tested compounds at their GI50 concentrations, and SDS-PAGE and western blot were performed. In addition, the acetylation levels of histone H3, which are mainly regulated by HDAC1, were also evaluated in order to exclude potential class I-HDAC off-target activities. We used Tubastatin-A and Geldanamycin as reference controls for cellular effects resulting from HDAC6- and Hsp90-inhibition, respectively. The results in Figure 2 show a significant increase in α-Tubulin acetylation in LNCaP cells after treatments with compounds 8, 11 and 18. Indeed, these compounds triggered a 2.9-, 5.1-, and 2.5-fold increase, respectively, compared to the control (DMSO). […].
(§2) Figure 2 Western blot analysis and relative quantification of the expression levels of acetylated-Tubulin (Ac-TUB), acetylated H3 (Ac-H3), and HSP70 in LNCaP (A,B) and PC-3 (C,D) cells treated for 24 h at GI50 concentration. Tubastatin-A was used as HDAC6-specific positive control, Geldanamycin (GELDA) as HSP90-specific positive control, and SAHA as pan-HDAC inhibitor. […]

[2] = system: acetylated H3 (Ac-H3) in LNCaP cells; assay: Western blot of acetylated histone H3 in LNCaP cells; assay type: cell-based, human; settings: 24 h at GI50 concentration
Protocol: as §1, §2

For `O=C(c1cc(OCc2ccccc2)ccc1O)N1CCC(c2noc(C(F)(F)F)n2)CC1` [Compound 8], the “induction of H3 acetylation” value [1] was “no remarkable induction of H3 acetylation” and the “induction of H3 acetylation” value [2] was “no remarkable induction of H3 acetylation”.
